The record followed here is PubChem BioAssay AID1918994 (Molecular Pharmacology Branch, DTP, NCI, 2023).

Each structure is given as a SMILES string. Values joined by “and” are separate entries in the source; they are usually repeats but may differ in a detail not shown here. Equal entries are not always repeated. A value given as a limit tells only on which side of the number the result lay.

The experiment relates to 292921-168-R-J2-PDC complex spheroid growth. The experiment in a line: Anticancer human tumor 292921-168-R-J2-PDC patient-derived pancreatic carcinoma cell line growth inhibition [AhR]. Conditions: for viability, T/C: stronger effect = lower value. The text has this: Multicellular complex tumor spheroid response to aryl hydrocarbon receptor antagonists in combination with a variety of drugs and investigational agents in selected tumor cell lines
The current study was undertaken to assess response to aryl hydrocarbon receptor antagonists in combination with standard-of-care drugs and investigational agents in solid tumor complex spheroid models. Complex spheroids include a stromal component modeled by human endothelial cells (HUVEC) and fibroblasts modeled by human mesenchymal stem cells (MSCs). The concentration ranges selected for each drug and investigational agent were based upon clinically achievable concentrations if the clinical Cmax of the agent was known.
Compounds. The drugs and investigational agents: BAY 2416964 (NSC825713), GNF351 (NSC835774), CH-223191 (NSC835775), CPI-455 (NSC825282), aza-TdCyd (NSC777586), decitabine (NSC127716), belinostat (NSC758774), entinostat (NSC756642), pevonedistat (NSC761192), tazemetostat (NSC777109), talazoparib (NSC765396), olaparib (NSC753686), selinexor (NSC780203), nedisertib (M3814, NSC802822), bortezomib (NSC756655), venetoclax (NSC766270), doxorubicin (NSC123127), elimusertib (BAY189344, NSC800525), ceralasertib (AZD6738, NSC777638), TAK-243 (NSC785004), alisertib (NSC759677), etoposide (NSC141540), topotecan (NSC609699), eribulin (NSC707389), gemcitabine (NSC613327), carboplatin (NSC241240), cisplatin (NSC119875), and SN-38 (NSC673596) were obtained from the National Cancer Institute (NCI) Developmental Therapeutics Program Chemical Repository (32). The FDA-approved anticancer drug set is available from the Developmental Therapeutics Program at https://dtp.cancer.gov/organization/dscb/obtaining/available plates.htm. […] The stock solutions were prepared in dimethyl sulfoxide (DMSO, Sigma-Aldrich, St. Louis, MO, cat. D2650), except for the platinum compounds which were prepared in saline (Quality Biological, Gaithersburg, MD, cat. 114-055-101), at 800-fold the tested concentration and stored at -70 degrees C prior to their use. All drugs and investigational agents were tested over a range starting from a high concentration at or near the clinical Cmax and decreasing in half-log increments. If the clinical Cmax for an agent had not been determined, the highest concentration tested was 10 microM (Table 1).
Cell Culture. All cells were maintained in an incubator at 37 degrees C and 5% CO2 with 95% humidity. The PDC lines were cultured according to standard operating procedures established by the NCI PDMR (https://pdmr.cancer.gov). Briefly, all PDCs were thawed and cultured in Matrigel-coated flasks prepared with a working solution of 1X Ham's F-12 nutrient mix, without supplementation (Invitrogen, Waltham, MA, cat. 11765054), 100 U/mL penicillin-streptomycin (Invitrogen, cat. 15140122), and 2.5% Matrigel (Corning Inc., Corning, NY, cat. 354248) for the first three passages. All PDCs were cultured in complete DMEM/F-12 media containing advanced DMEM/F-12 (Invitrogen, cat. 12634028), 4.9% defined fetal bovine serum, heat inactivated (HyClone Laboratories Inc., Logan, UT, cat. SH30070.03HI), 389 ng/mL hydrocortisone (Sigma-Aldrich, cat. H4001), 9.7 ng/mL human EGF recombinant protein (Invitrogen, cat. PHG0313), 23.4 microg/mL adenine (Sigma-Aldrich, cat. A2786), 97.3 U/mL penicillin-streptomycin (Invitrogen, cat. 15140122), 1.9 mM L-glutamine (Invitrogen, cat. 25030081), and 9.7 microM Y-27632 dihydrochloride (Tocris Bioscience, Bristol, United Kingdom, cat. 1254). The PDCs were cultured in complete DMEM/F12 media without 10 microM Y-27632 dihydrochloride for at least two passages prior to the screen. The established cell lines NCI-H1341 and […] were cultured in DMEM/F-12, HEPES (Invitrogen, cat. 11330032), 5% defined fetal bovine serum (HyClone Laboratories Inc., cat. SH30070.03), ITS premix universal culture supplement [insulin (5 microg/mL), transferrin (5 microg/mL), and selenious acid (5 ng/mL)] […]

[1] abbreviates: curve of first compound, second compound 0.1 µM.
Setting [2] is: curve of first compound, second compound 0.316 µM.
Where [3] appears, read: curve of first compound, second compound 1 µM.
Setting [4] is: curve of first compound, second compound 3.16 µM.
The mark [5] stands for this setting: curve of first compound, second compound 10 µM.
Where [6] appears, read: second compound 0.1 µM, first compound 0.0316 µM.
Where [7] appears, read: second compound 0.1 µM, first compound 0.1 µM.
[8] abbreviates: second compound 0.1 µM, first compound 0.316 µM.
[9] abbreviates: second compound 0.1 µM, first compound 1 µM.
Where [10] appears, read: second compound 0.1 µM, first compound 3.16 µM.
Setting [11] is: second compound 0.1 µM, first compound 10 µM.
Setting [12] is: second compound 0.316 µM, first compound 0.0316 µM.
[13] abbreviates: second compound 0.316 µM, first compound 0.1 µM.
Setting [14] is: second compound 0.316 µM, first compound 0.316 µM.
[15] abbreviates: second compound 0.316 µM, first compound 1 µM.
[16] abbreviates: second compound 0.316 µM, first compound 3.16 µM.
The mark [17] stands for this setting: second compound 0.316 µM, first compound 10 µM.
Where [18] appears, read: second compound 1 µM, first compound 0.0316 µM.
Setting [19] is: second compound 1 µM, first compound 0.1 µM.
The mark [20] stands for this setting: second compound 1 µM, first compound 0.316 µM.
The mark [21] stands for this setting: second compound 1 µM, first compound 1 µM.
The mark [22] stands for this setting: second compound 1 µM, first compound 3.16 µM.
The mark [23] stands for this setting: second compound 1 µM, first compound 10 µM.
[24] abbreviates: second compound 3.16 µM, first compound 0.0316 µM.
The mark [25] stands for this setting: second compound 3.16 µM, first compound 0.1 µM.
[26] abbreviates: second compound 3.16 µM, first compound 0.316 µM.
Setting [27] is: second compound 3.16 µM, first compound 1 µM.
The mark [28] stands for this setting: second compound 3.16 µM, first compound 3.16 µM.
Setting [29] is: second compound 3.16 µM, first compound 10 µM.
Setting [30] is: second compound 10 µM, first compound 0.0316 µM.
The mark [31] stands for this setting: second compound 10 µM, first compound 0.1 µM.
Where [32] appears, read: second compound 10 µM, first compound 0.316 µM.
Where [33] appears, read: second compound 10 µM, first compound 1 µM.
The mark [34] stands for this setting: second compound 10 µM, first compound 3.16 µM.
Setting [35] is: second compound 10 µM, first compound 10 µM.
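Further: spheroids exposed to compounds for seven days after three days of growth.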

As to `COc1cc(C2c3cc4c(cc3C(OC3OC5COC(C)OC5C(O)C3O)C3COC(=O)C23)OCO4)cc(OC)c1O` (stereo unspecified) + Cc1cncc(-c2nc(NCCc3c[nH]c4ccccc34)c3ncn(C(C)C)c3n2)c1, the IC50 – broadly, the concentration that gives 50% inhibition – under setting [1] is 0.565 µM; the IC50 under setting [2] came out at 0.581 µM; the IC50 under setting [3] was 0.289 µM; the IC50 under setting [4] turned out to be 0.261 µM; the IC50 under setting [5] was below 0.0316 µM. In addition, the viability, T/C (usually the result in the treated group divided by that in the control group, in per cent) was 92.6% under setting [6]; 92.2% under setting [7]; 64% under setting [8]; 34.1% under setting [9]; 24.2% under setting [10]; 13.3% under setting [11]. In addition, the viability, T/C is, setting by setting: under setting [12], 78.7%; under setting [13], 73.6%; under setting [14], 64.8%; under setting [15], 35.9%; under setting [16], 24.7%; under setting [17], 12.9%. Besides, the viability, T/C was 77.1% under setting [18]; 67% under setting [19]; 48.9% under setting [20]; 28.7% under setting [21]; 23.4% under setting [22]; 13.1% under setting [23]. For the same compound, the viability, T/C by setting is: under setting [24], 62.3%; under setting [25], 62.5%; under setting [26], 47.5%; under setting [27], 25.9%; under setting [28], 21.2%; under setting [29], 13.5%. Besides, the viability, T/C under setting [30] was 46.5%; the viability, T/C under setting [31] was 43.6%; the viability, T/C under setting [32] was 37.2%; the viability, T/C under setting [33] was 26.2%; the viability, T/C under setting [34] was 22.3%; the viability, T/C under setting [35] was 20.2%.

On to `CCN(c1cc(-c2ccc(CN3CCOCC3)cc2)cc(C(=O)NCc2c(C)cc(C)[nH]c2=O)c1C)C1CCOCC1`, for which the viability, T/C (compound 0.00949 µM) is 98.8% and 103% and 105%; the viability, T/C (compound 0.03 µM) was 106% and 107% and 104%; the viability, T/C (compound 0.0949 µM) was 109% and 96.8% and 96.2%; the viability, T/C (compound 0.3 µM) was 100% and 97.3% and 98.5%; the viability, T/C (compound 0.949 µM) is 99.8% and 89.8% and 102%; the viability, T/C (compound 3 µM) is 93.2% and 91% and 90.2%. For the same compound, the IC50 (curve of compound) is above 3 µM.

On to `Cc1cncc(-c2nc(NCCc3c[nH]c4ccccc34)c3ncn(C(C)C)c3n2)c1`, for which the viability, T/C was 90.8% [middle of 20 runs] (compound 0.1 µM), 89.1% [middle of 20 runs] (compound 0.316 µM), 80.5% [middle of 20 runs] (compound 1 µM) and 47.8% [middle of 20 runs] (compound 10 µM).

In the case of `Nc1ccccc1NC(=O)c1ccc(CNC(=O)OCc2cccnc2)cc1` + Cc1cncc(-c2nc(NCCc3c[nH]c4ccccc34)c3ncn(C(C)C)c3n2)c1, the IC50 reads like this: under setting [1], 0.351 µM; under setting [2], 0.242 µM; under setting [3], 0.251 µM; under setting [4], below 0.0316 µM; under setting [5], below 0.0316 µM. Moreover, the viability, T/C runs as follows: under setting [6], 75.2%; under setting [7], 63.8%; under setting [8], 48.1%; under setting [9], 40.9%; under setting [10], 27.9%; under setting [11], 13.4%. Besides, the viability, T/C under setting [12] was 68.2%; the viability, T/C under setting [13] is 57%; the viability, T/C under setting [14] was 49.7%; the viability, T/C under setting [15] was 33.6%; the viability, T/C under setting [16] was 25.7%; the viability, T/C under setting [17] is 11.5%. Besides, the viability, T/C under setting [18] was 58.4%; the viability, T/C under setting [19] was 60.7%; the viability, T/C under setting [20] is 45.7%; the viability, T/C under setting [21] is 35.9%; the viability, T/C under setting [22] is 22.9%; the viability, T/C under setting [23] is 11.9%. The viability, T/C by setting is: under setting [24], 43.5%; under setting [25], 47.4%; under setting [26], 39.3%; under setting [27], 30.5%; under setting [28], 17.2%; under setting [29], 10.9%. The viability, T/C reads like this: under setting [30], 27.8%; under setting [31], 27.9%; under setting [32], 22.6%; under setting [33], 22.4%; under setting [34], 15.4%; under setting [35], 7.52%.

With `CC1COCCN1c1cc(C2(S(C)(=N)=O)CC2)nc(-c2ccnc3[nH]ccc23)n1` (stereo unspecified) + Cc1cncc(-c2nc(NCCc3c[nH]c4ccccc34)c3ncn(C(C)C)c3n2)c1, the IC50 stood at 3.61 µM under setting [1]; 3 µM under setting [2]; 2.58 µM under setting [3]; 1.94 µM under setting [4]; 0.0316 µM under setting [5]. The viability, T/C under setting [6] is 89.8%; the viability, T/C under setting [7] is 87.6%; the viability, T/C under setting [8] was 95.8%; the viability, T/C under setting [9] is 76.9%; the viability, T/C under setting [10] is 54.2%; the viability, T/C under setting [11] was 24.7%. Moreover, the viability, T/C runs as follows: under setting [12], 86.5%; under setting [13], 80.5%; under setting [14], 73.3%; under setting [15], 80.2%; under setting [16], 48.6%; under setting [17], 24.7%. Also, the viability, T/C was 77.2% under setting [18]; 80.6% under setting [19]; 88.4% under setting [20]; 70% under setting [21]; 45.9% under setting [22]; 24.5% under setting [23]. For the same compound, the viability, T/C runs as follows: under setting [24], 63.3%; under setting [25], 63.3%; under setting [26], 66.9%; under setting [27], 59.6%; under setting [28], 42.6%; under setting [29], 25.4%. The viability, T/C reads like this: under setting [30], 48.6%; under setting [31], 45.9%; under setting [32], 50%; under setting [33], 50.4%; under setting [34], 38.8%; under setting [35], 29.4%.
